In US20240059703A1 (AMGEN INC., priority 2021, published 2024) one finds IC50 data, which are given here for 26 compounds.

By IC50 is commonly meant the concentration that gives 50% inhibition.

Sequence of KRAS G12C (P01116 other isoform, or with tags, fused parts or gaps G12C/C118A): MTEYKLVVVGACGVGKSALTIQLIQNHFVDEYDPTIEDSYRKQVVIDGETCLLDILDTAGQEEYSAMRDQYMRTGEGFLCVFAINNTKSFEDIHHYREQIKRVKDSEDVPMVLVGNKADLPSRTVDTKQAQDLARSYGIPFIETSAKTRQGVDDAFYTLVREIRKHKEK

The test addresses KRAS G12C (Homo sapiens (Human), UniProt P01116, C118A/G12C). As to the kind of experiment: 2 h coupled exchange assay. Type of test: biochemical. Particulars: Avg 2 h Coupled exchange IC50, 2 h compound pre-incubation, SOS-mediated nucleotide exchange. The protocol:
The term “2 h coupled exchange assay” or “20 h coupled exchange assay” as used herein refers to the assay described in the Section entitled “BIOLOGICAL EVALUATION.”
`C=CC(=O)N1CC2(CCN(c3nc4c(c(-c5cc(O)c(F)c6ccccc56)c3C#N)CC[C@H]3C[C@@H]43)C2)C1` (single isomer, unassigned) [Example 13-75] yielded an IC50 of 17 µM. In turn, `C=CC(=O)N1CC2(CCN(c3nc4c(c(-c5cc(O)c(F)c6ccccc56)c3C#N)COC(C)(C)C4)C2)C1` (single isomer, unassigned) [Example 13-77, (M)-4-(4-fluoro-3-hydroxy-1-naphthalenyl)-7,7-dimethyl-2-(2-(2-propenoyl)-2,6-diazaspiro[3.4]octan-6-yl)-7,8-dihydro-5H-pyrano[4,3-b]pyridine-3-carbonitrile] displayed an IC50 of 35.6 µM.

`CN(C)C/C=C/C(=O)N1CC2(CCN(c3nc4c(c(-c5cc(O)cc6ccccc56)c3C#N)CC[C@H]3C[C@@H]43)C2)C1` (single isomer, unassigned) [Example 13-88] yielded a half-inhibitory concentration (IC50) of 0.143 µM. The value for `C=CC(=O)N1CC2(CCN(c3nc4c(c(-c5c(C)c(C)cc6cnn(C)c56)c3C#N)COC(C)(C)C4)C2)C1` (single isomer, unassigned) [Example 13-91, (M)-7,7-dimethyl-2-(2-(2-propenoyl)-2,6-diazaspiro[3.4]octan-6-yl)-4-(1,5,6-trimethyl-1H-indazol-7-yl)-7,8-dihydro-5H-pyrano[4,3-b]pyridine-3-carbonitrile] was 9.27 µM; that for `C=CC(=O)N1CC2(CCN(c3nc4c(c(-c5c(C)ccc6cnn(C)c56)c3C#N)CCC4(C)C)C2)C1` (single isomer, unassigned) [Example 13-102, (P)-2-(2-acryloyl-2,6-diazaspiro[3.4]octan-6-yl)-4-(1,6-dimethyl-1H-indazol-7-yl)-7,7-dimethyl-6,7-dihydro-5H-cyclopenta[b]pyridine-3-carbonitrile] was 140 µM. As for `C=CC(=O)N1CC2(CCN(c3nc4c(c(-c5c(C)ccc6cnn(C)c56)c3C#N)CCC4(C)C)C2)C1` (single isomer, unassigned) [Example 13-103, (M)-2-(2-acryloyl-2,6-diazaspiro[3.4]octan-6-yl)-4-(1,6-dimethyl-1H-indazol-7-yl)-7,7-dimethyl-6,7-dihydro-5H-cyclopenta[b]pyridine-3-carbonitrile], the figure is 0.283 µM. As for `C=CC(=O)N1CC2(CCN(c3nc4c(c(-c5c(C)ccc6cnn(C)c56)c3C#N)C[C@H]3C[C@@H]4C3(C)C)C2)C1` (single isomer, unassigned) [Example 13-105], the figure is 14.7 µM; as for `C=CC(=O)N1CC2(CCN(c3nc4c(c(-c5c(C)ccc6[nH]ncc56)c3C#N)C[C@H]3C[C@@H]4C3(C)C)C2)C1` (single isomer, unassigned) [Example 13-114], 1.38 µM; as for `C=CC(=O)N1CC2(CCN(c3nc4c(c(-c5c(C)ccc6cnn(C)c56)c3C#N)C[C@H]3C[C@@H]4C3)C2)C1` (single isomer, unassigned) [Example 13-117], 15.8 µM. In turn, `C=CC(=O)N1CC2(CCN(c3nc4c(c(-c5c(C)ccc6cnn(C)c56)c3C#N)CO[C@@H](C3CC3)C4)C2)C1` (single isomer, unassigned) [Example 13-119] registered an IC50 of 6.7 µM. Compared with the last compound, the IC50 is about 2.4-fold lower. `C=CC(=O)N1CC2(CCN(c3nc4c(c(-c5c(C)ccc6cnn(C)c56)c3C#N)CO[C@H](C3CC3)C4)C2)C1` (single isomer, unassigned) [Example 13-120] came in with an IC50 of 9.19 µM. This IC50 and that of the compound before are within 1.5-fold of each other. Consider `C=CC(=O)N1CC2(CCN(c3nc4c(c(-c5c(C)ccc6cnn(C)c56)c3C#N)CO[C@H](C3CC3)C4)C2)C1` (single isomer, unassigned) [Example 13-121], for which 0.849 µM corresponded to half-maximal inhibition (IC50). The value for `C=CC(=O)N1CC2(CCN(c3nc4c(c(-c5cnccc5C)c3C#N)C[C@H]3C[C@@H]4C3(C)C)C2)C1` (single isomer, unassigned) [Example 13-123] was 0.856 µM; that for `C=CC(=O)N1CC2(CCN(c3nc4c(c(-c5cnccc5C)c3C#N)C[C@H]3C[C@@H]4C3(C)C)C2)C1` (single isomer, unassigned) [Example 13-124] was 45.5 µM. Compound `C=CC(=O)N1CC2(CCN(c3nc4c(c(-c5cc(O)ccc5C)c3C#N)C[C@H]3C[C@@H]4C3)C2)C1` (single isomer, unassigned) [Example 13-125] returned an IC50 of 12.6 µM. This IC50 is about 3.6-fold lower than that of the compound before. Consider `C=CC(=O)N1CC2(CCN(c3nc4c(c(-c5cc(O)ccc5C)c3C#N)COC(C)(C)C4)C2)C1` (single isomer, unassigned) [Example 13-127, 4-(5-hydroxy-2-methylphenyl)-7,7-dimethyl-2-(2-(2-propenoyl)-2,6-diazaspiro[3.4]octan-6-yl)-7,8-dihydro-5H-pyrano[4,3-b]pyridine-3-carbonitrile], for which the IC50 was determined as 153 µM. As for `C=CC(=O)N1CC2(CCN(c3nc4c(c(-c5cc(O)cc6ccccc56)c3C#N)C[C@H]3C[C@@H]4C3(C)C)C2)C1` (single isomer, unassigned) [Example 13-130], the figure is 13.1 µM; as for `C=CC(=O)N1CC2(CCN(c3nc4c(c(-c5c(C)ccc6cnn(C)c56)c3C#N)[C@H]3C[C@@H](C4)C3)C2)C1` (single isomer, unassigned) [Example 13-132], 24.4 µM. As for `C=CC(=O)N1CC2(CCN(c3nc4c(c(-c5c(C)ccc6cnn(C)c56)c3C#N)CC[C@@H]3C[C@H]43)C2)C1` (single isomer, unassigned) [Example 13-134, (6a,7a)-4-(1,6-dimethyl-1H-indazol-7-yl)-2-(2-(2-propenoyl)-2,6-diazaspiro[3.4]octan-6-yl)-6,6a,7,7a-tetrahydro-5H-cyclopropa[h]quinoline-3-carbonitrile], the figure is 39.3 µM. The value for `C=CC(=O)N1CC2(CCN(c3nc4c(c(-c5c(C)ccc6cnn(C)c56)c3C#N)CC[C@H]3C[C@@H]43)C2)C1` (single isomer, unassigned) [Example 13-135, (6a,7a)-4-(1,6-dimethyl-1H-indazol-7-yl)-2-(2-(2-propenoyl)-2,6-diazaspiro[3.4]octan-6-yl)-6,6a,7,7a-tetrahydro-5H-cyclopropa[h]quinoline-3-carbonitrile] was 62.5 µM. Turning to `C=CC(=O)N1CC2(CCN(c3nc4c(c(-c5c(C)ccc6[nH]ncc56)c3C#N)[C@H]3CC[C@@H]4C3)C2)C1` (single isomer, unassigned) [Example 14-5], the IC50 came to 0.129 µM. As for `C=CC(=O)N1CC2(CCN(c3nc4c(c(-c5c(C)ccc6[nH]ncc56)c3C#N)[C@@H]3CC[C@H]4C3)C2)C1` (single isomer, unassigned) [Example 14-6], the figure is 1.42 µM; as for `C=CC(=O)N1CC2(CCN(c3nc4c(c(-c5c(C)ccc6[nH]ncc56)c3C#N)[C@H]3CC[C@@H]4C3)C2)C1` (single isomer, unassigned) [Example 14-8], 2.57 µM. The value for `C=CC(=O)N1CC2(CCN(c3nc4c(c(-c5cc(O)ccc5C)c3C#N)[C@@H]3CC[C@H]4C3)C2)C1` (single isomer, unassigned) [Example 14-10] was 1.14 µM. The value for `C=CC(=O)N1CC2(CCN(c3nc4c(c(-c5cc(O)ccc5C)c3C#N)[C@H]3CC[C@@H]4C3)C2)C1` (single isomer, unassigned) [Example 14-12] was 0.422 µM. Compound `C=CC(=O)N1CC2(CCN(c3nc4c(c(-c5cc(O)ccc5C)c3C#N)[C@H]3CC[C@@H]4C3)C2)C1` (single isomer, unassigned) [Example 14-13] registered an IC50 of 2.84 µM.
